Results from patent publication US10172769B2, “Method for whitening teeth” (DENT-WHITE CO., LTD., priority 2015, dated 2019).

Tests used:
[1] = Degree of permeation of hydrogen peroxide through transwell membrane according to anion irradiation; conditions: 10 minutes, room temperature, composition with 15% by weight hydrogen peroxide and 25 nM potassium triphosphate
Method: Two identical transwell membranes were prepared by the above-described process, and one of them was irradiated with anions at room temperature for 10 minutes using an anion irradiator (trade name: Bluen: BN-108), and the other one was allowed to stand at room temperature for 10 minutes without irradiating anions.
Thereafter, the concentration of hydrogen peroxide escaped from each transwell membrane to the outside was titrated to calculate the ratio of hydrogen peroxide that passed through the membrane.

[2] = cited from earlier work

OO [hydrogen peroxide]
ratio of hydrogen peroxide escaped from the transwell membrane to the outside ([1]; anion-irradiated): 72 % by weight | ratio of hydrogen peroxide escaped from the transwell membrane to the outside ([1]; non-irradiated): 51 % by weight

O=P([O-])([O-])OP(=O)([O-])OP(=O)([O-])[O-].[K+].[K+].[K+].[K+].[K+] [potassium triphosphate]
pKa [2]: 12.38
